# From PMC4051630, “A Comparison of Protein Kinases Inhibitor Screening Methods Using Both Enzymatic Activity and Binding Affinity Determination” (PLoS ONE, 2014)
# Key:
# Test in all cases: Differential Scanning Fluorimetry (DSF) Tm shift
# Format in all cases: binding
# AKT3 Catalytic Domain = target: T1, AKT3 Catalytic Domain (Homo sapiens, UniProt Q9Y243); conditions: 2 µM protein, 10 µM inhibitor, average of 3 experiments, each in duplicate
# T1 construct: AKT3 (Q9Y243); CD; His-tag; made in house; host or cells: Escherichia coli
# CDK2 + Cyclin A = target: T2, CDK2 + Cyclin A (Homo sapiens, UniProt P24941); conditions: CDK2 + Cyclin A; 2 µM protein, 10 µM inhibitor; average of 3 experiments, each in duplicate
# T2 construct: CDK2 (P24941); 1–299; His-tag; made in house; host or cells: Escherichia coli
# CHK2 Catalytic Domain = target: T3, CHK2 Catalytic Domain (Homo sapiens, UniProt O96017); conditions: 2 µM protein, 10 µM inhibitor, average of 3 experiments, each in duplicate
# T3 construct: For all of them, we expressed and purified the catalytic domain separately; His-tag; made in house; host or cells: Escherichia coli
# DMPK Catalytic Domain = target: T4, DMPK Catalytic Domain (Homo sapiens, UniProt Q09013); conditions: 2 µM protein, 10 µM inhibitor, average of 3 experiments, each in duplicate
# T4 construct: For all of them, we expressed and purified the catalytic domain separately; His-tag; made in house; host or cells: Escherichia coli
# T4 sequence (Q09013 71-339 limits assumed): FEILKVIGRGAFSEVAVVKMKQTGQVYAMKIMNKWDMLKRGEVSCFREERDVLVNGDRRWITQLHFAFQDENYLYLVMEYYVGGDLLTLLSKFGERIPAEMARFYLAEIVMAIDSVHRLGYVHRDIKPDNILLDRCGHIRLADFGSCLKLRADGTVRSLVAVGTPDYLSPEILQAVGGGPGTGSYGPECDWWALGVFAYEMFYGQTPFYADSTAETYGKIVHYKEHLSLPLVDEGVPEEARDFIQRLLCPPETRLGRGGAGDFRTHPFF
# FAK2 Catalytic Domain = target: T5, FAK2 Catalytic Domain (Homo sapiens, UniProt Q14289); conditions: 2 µM protein, 10 µM inhibitor, average of 3 experiments, each in duplicate
# T5 construct: For all of them, we expressed and purified the catalytic domain separately; His-tag; made in house; host or cells: Escherichia coli
# FES Catalytic Domain+SH2 = target: T6, FES Catalytic Domain+SH2 (Homo sapiens, UniProt P07332); conditions: 2 µM protein, 10 µM inhibitor, average of 3 experiments, each in duplicate
# T6 construct: for 8, we also made a longer version containing one or more additional domains; His-tag; made in house; host or cells: Escherichia coli
# FES Catalytic Domain = target: T7, FES Catalytic Domain (Homo sapiens, UniProt P07332); conditions: 2 µM protein, 10 µM inhibitor, average of 3 experiments, each in duplicate
# T7 construct: For all of them, we expressed and purified the catalytic domain separately; His-tag; made in house; host or cells: Escherichia coli
# [1] = target: T8, PAK4 Catalytic Domain+PBD (Homo sapiens, UniProt O96013); conditions: 2 µM protein, 10 µM inhibitor, average of 3 experiments, each in duplicate
# T8 construct: for 8, we also made a longer version containing one or more additional domains; His-tag; made in house; host or cells: Escherichia coli
# PAK4 Catalytic Domain = target: T9, PAK4 Catalytic Domain (Homo sapiens, UniProt O96013); conditions: 2 µM protein, 10 µM inhibitor, average of 3 experiments, each in duplicate
# T9 construct: For all of them, we expressed and purified the catalytic domain separately; His-tag; made in house; host or cells: Escherichia coli
# PAK7 Catalytic Domain = target: T10, PAK7 Catalytic Domain (Homo sapiens, UniProt Q9P286); conditions: 2 µM protein, 10 µM inhibitor, average of 3 experiments, each in duplicate
# T10 construct: For all of them, we expressed and purified the catalytic domain separately; His-tag; made in house; host or cells: Escherichia coli
# [2] = target: SRC Catalytic Domain+SH2+SH3 (Homo sapiens, UniProt P12931); conditions: 2 µM protein, 10 µM inhibitor, average of 3 experiments, each in duplicate
# [3] = target: T11, STK3 Catalytic domain+SARAH (Homo sapiens, UniProt Q13188); conditions: 2 µM protein, 10 µM inhibitor, average of 3 experiments, each in duplicate
# T11 construct: for 8, we also made a longer version containing one or more additional domains; His-tag; made in house; host or cells: Escherichia coli
# T11 sequence (Q13188 1-491): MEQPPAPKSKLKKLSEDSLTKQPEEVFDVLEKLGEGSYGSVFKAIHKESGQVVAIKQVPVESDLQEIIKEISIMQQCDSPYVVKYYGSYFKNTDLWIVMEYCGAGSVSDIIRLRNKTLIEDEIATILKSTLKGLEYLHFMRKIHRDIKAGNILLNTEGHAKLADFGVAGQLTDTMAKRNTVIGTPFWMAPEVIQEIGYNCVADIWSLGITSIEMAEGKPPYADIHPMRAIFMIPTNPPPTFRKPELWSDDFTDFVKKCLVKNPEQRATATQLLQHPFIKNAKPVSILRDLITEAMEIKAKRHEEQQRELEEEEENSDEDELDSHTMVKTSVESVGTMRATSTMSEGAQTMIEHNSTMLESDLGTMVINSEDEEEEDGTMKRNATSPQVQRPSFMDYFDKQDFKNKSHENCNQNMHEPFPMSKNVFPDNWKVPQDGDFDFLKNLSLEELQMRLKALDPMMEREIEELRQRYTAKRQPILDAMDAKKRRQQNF
# STK3 Catalytic Domain = target: T12, STK3 Catalytic Domain (Homo sapiens, UniProt Q13188); conditions: 2 µM protein, 10 µM inhibitor, average of 3 experiments, each in duplicate
# T12 construct: For all of them, we expressed and purified the catalytic domain separately; His-tag; made in house; host or cells: Escherichia coli
# T12 sequence (Q13188 27-278 limits assumed): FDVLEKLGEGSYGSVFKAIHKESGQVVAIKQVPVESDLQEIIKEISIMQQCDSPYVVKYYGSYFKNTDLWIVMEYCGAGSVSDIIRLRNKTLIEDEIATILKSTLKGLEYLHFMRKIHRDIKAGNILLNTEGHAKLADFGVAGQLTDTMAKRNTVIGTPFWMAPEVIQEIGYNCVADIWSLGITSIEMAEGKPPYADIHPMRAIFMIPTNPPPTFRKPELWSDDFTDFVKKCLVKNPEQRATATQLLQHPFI
# SRC Catalytic Domain = SRC Catalytic Domain (Homo sapiens, UniProt P12931); set-up: For all of them, we expressed and purified the catalytic domain separately; His-tag; made in house; host or cells: Escherichia coli; conditions: 2 µM protein, 10 µM inhibitor, average of 3 experiments, each in duplicate
# CDK2 + Cyclin E = target: T13, CDK2 + Cyclin E (Homo sapiens, UniProt P24941); conditions: CDK2 + Cyclin E; 2 µM protein, 10 µM inhibitor; average of 3 experiments, each in duplicate
# T13 construct: CDK2 (P24941); 1–299; His-tag; made in house; host or cells: Escherichia coli
# T6 sequence (P07332 448-822 limits assumed): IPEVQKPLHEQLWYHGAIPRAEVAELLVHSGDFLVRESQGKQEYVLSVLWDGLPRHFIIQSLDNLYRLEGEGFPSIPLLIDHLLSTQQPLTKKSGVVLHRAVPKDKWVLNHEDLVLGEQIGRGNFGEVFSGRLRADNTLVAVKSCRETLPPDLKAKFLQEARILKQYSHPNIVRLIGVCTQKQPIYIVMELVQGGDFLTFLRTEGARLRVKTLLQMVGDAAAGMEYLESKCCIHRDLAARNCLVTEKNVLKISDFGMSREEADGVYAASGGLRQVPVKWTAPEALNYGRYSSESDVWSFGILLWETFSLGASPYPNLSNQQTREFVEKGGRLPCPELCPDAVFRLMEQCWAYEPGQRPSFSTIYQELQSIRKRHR
# T10 sequence (Q9P286 449-700 limits assumed): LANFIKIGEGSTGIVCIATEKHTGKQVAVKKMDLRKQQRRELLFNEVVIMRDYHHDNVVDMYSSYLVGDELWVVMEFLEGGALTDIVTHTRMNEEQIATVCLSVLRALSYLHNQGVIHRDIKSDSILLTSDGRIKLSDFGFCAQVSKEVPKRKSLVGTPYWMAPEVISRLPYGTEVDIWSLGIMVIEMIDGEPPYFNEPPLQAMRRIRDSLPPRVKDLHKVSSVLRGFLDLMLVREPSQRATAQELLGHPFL
# T3 sequence (O96017 220-486 limits assumed): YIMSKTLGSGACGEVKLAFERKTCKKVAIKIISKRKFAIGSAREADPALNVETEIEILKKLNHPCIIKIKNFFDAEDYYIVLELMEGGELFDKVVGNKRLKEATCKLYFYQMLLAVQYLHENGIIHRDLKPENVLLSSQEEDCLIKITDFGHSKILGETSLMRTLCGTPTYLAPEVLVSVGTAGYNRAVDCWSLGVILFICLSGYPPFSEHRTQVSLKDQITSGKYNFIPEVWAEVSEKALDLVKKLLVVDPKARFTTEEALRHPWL
# T8 sequence (O96013 whole entry, the tested form may be a part): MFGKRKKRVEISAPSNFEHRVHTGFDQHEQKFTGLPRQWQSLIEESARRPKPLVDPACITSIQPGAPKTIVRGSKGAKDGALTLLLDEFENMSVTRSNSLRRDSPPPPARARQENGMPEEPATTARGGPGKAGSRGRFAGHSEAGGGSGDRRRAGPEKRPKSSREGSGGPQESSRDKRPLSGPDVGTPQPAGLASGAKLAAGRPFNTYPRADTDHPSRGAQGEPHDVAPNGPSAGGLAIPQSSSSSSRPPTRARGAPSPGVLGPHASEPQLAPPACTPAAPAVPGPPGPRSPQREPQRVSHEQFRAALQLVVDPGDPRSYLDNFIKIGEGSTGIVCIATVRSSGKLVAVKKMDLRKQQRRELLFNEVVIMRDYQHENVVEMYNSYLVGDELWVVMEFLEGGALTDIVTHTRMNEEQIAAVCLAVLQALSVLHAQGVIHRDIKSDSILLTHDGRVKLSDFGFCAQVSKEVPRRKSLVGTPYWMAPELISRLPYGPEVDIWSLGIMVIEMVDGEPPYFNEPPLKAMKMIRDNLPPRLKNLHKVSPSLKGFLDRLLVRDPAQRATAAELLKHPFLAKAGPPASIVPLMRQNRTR
# T7 sequence (P07332 561-822 limits assumed): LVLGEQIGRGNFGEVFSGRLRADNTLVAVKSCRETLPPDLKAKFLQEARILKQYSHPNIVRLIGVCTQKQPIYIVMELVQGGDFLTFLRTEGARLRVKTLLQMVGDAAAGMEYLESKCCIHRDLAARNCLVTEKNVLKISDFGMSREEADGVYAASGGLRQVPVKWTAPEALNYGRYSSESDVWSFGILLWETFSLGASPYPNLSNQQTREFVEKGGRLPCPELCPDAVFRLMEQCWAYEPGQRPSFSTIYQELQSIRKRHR
# Sequence of SRC Catalytic Domain+SH2+SH3 (P12931 84-523 limits assumed): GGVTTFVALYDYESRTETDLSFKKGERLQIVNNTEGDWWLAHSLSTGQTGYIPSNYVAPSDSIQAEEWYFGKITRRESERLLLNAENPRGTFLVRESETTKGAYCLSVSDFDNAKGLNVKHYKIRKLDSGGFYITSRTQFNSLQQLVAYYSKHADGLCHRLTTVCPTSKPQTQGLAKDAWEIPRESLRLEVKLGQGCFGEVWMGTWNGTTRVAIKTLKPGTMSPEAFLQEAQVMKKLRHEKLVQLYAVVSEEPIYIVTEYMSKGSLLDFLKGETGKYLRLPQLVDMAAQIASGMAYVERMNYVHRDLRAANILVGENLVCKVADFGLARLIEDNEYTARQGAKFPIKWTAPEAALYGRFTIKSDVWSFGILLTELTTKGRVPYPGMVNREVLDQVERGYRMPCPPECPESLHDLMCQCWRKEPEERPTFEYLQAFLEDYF
# T9 sequence (O96013 321-572 limits assumed): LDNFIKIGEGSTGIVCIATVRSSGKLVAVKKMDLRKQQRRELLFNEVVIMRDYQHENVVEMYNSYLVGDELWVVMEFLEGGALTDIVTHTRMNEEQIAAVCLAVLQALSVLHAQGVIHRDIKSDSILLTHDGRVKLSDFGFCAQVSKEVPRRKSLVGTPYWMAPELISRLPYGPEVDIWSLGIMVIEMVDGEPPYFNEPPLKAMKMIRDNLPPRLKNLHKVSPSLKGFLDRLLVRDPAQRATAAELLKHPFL
# T1 sequence (Q9Y243 122-479): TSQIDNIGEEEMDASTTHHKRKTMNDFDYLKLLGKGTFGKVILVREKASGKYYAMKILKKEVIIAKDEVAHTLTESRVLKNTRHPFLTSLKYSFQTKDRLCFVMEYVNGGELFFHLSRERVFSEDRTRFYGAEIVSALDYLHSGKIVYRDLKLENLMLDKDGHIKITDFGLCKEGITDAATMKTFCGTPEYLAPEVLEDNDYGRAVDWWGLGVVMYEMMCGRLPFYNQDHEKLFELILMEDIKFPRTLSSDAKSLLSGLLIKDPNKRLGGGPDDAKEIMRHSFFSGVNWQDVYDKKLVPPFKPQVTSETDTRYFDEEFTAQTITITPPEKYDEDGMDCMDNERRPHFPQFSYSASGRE
# T5 sequence (Q14289 425-683 limits assumed): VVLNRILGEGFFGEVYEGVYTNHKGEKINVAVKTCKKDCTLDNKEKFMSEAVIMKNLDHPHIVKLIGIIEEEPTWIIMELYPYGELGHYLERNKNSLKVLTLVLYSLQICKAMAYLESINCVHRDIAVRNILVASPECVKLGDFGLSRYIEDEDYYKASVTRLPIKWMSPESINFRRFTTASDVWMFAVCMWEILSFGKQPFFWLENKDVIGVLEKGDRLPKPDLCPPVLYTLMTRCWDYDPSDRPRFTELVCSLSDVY
# Sequence of SRC Catalytic Domain (P12931 270-523 limits assumed): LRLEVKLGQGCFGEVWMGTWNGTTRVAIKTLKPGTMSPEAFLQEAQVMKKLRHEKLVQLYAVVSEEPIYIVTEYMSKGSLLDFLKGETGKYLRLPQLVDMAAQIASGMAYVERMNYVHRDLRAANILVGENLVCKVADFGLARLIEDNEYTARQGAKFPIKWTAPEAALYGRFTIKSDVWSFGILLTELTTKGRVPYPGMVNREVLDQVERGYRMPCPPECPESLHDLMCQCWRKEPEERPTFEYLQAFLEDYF
Structure (SMILES),Melting temperature (Tm) shift (AKT3 Catalytic Domain) [degrees Celcius],Melting temperature (Tm) shift (CDK2 + Cyclin A) [degrees Celcius],Melting temperature (Tm) shift (CHK2 Catalytic Domain) [degrees Celcius],Melting temperature (Tm) shift (DMPK Catalytic Domain) [degrees Celcius],Melting temperature (Tm) shift (FAK2 Catalytic Domain) [degrees Celcius],Melting temperature (Tm) shift (FES Catalytic Domain+SH2) [degrees Celcius],Melting temperature (Tm) shift (FES Catalytic Domain) [degrees Celcius],Melting temperature (Tm) shift [1] [degrees Celcius],Melting temperature (Tm) shift (PAK4 Catalytic Domain) [degrees Celcius],Melting temperature (Tm) shift (PAK7 Catalytic Domain) [degrees Celcius],Melting temperature (Tm) shift [2] [degrees Celcius],Melting temperature (Tm) shift [3] [degrees Celcius],Melting temperature (Tm) shift (STK3 Catalytic Domain) [degrees Celcius],Melting temperature (Tm) shift (SRC Catalytic Domain) [degrees Celcius],Melting temperature (Tm) shift (CDK2 + Cyclin E) [degrees Celcius]
O=C(Nc1cccc(Nc2nccc(Nc3cccc(C(F)(F)F)c3)n2)c1)C1CC1 [Aurora Kinase Inhibitor III],0.1,0.2,0.4,0.9,0.2,0.3,0.2,1.1,0.8,0.0,0.0,0.4,0.1,0.2,
COc1cc2ncnc(Nc3ccc(NC(=O)c4ccccc4)cc3)c2cc1OC [Aurora Kinase Inhibitor II],0.1,0.1,7.0,0.1,0.3,0.2,0.1,0.1,,,0.4,0.4,0.9,0.7,
Cc1cc(Nc2nc(-c3ccccc3)nc3ccccc23)n[nH]1 [GSK-3 Inhibitor XIII],0.2,0.3,1.9,0.5,0.8,0.2,1.0,0.8,3.0,2.0,1.6,0.9,3.7,1.3,
O=C1NC(=O)C(=Cc2ccc(-c3ccc(F)cc3O)o2)S1 [PI 3-Kγ/CKII Inhibitor],,0.2,2.5,0.3,0.1,0.5,,1.3,0.9,,0.1,0.5,0.3,0.0,0.2
O=C1NC(=O)C(c2cn(CCCn3ccnc3)c3ccccc23)=C1Nc1ccccc1 [PKCb Inhibitor],,0.5,2.0,1.6,,,0.4,,,0.0,,1.7,0.3,0.1,0.0
CS(=O)(=O)O.Cn1cc(C2=C(c3cn(CCCSC(=N)N)c4ccccc34)C(=O)NC2=O)c2ccccc21 [Ro-31-8220],1.6,,6.6,4.8,0.5,0.8,1.0,1.6,1.5,0.9,0.0,2.9,1.8,0.2,
COc1cc2ncnc(Nc3ccc(Oc4ccccc4)cc3)c2cc1OC [Src Kinase Inhibitor I],,0.0,3.0,0.7,0.6,0.1,0.1,,,0.0,1.6,0.1,0.3,2.1,0.2
COc1cc2ncnc(Nc3ccc(Cl)cc3Cl)c2cc1OC [Ste11 MAPKKK Activation Inhibitor],,0.1,10.6,0.4,0.4,0.1,0.1,0.1,0.0,0.0,0.7,0.6,0.3,0.5,
CN[C@@H]1C[C@H]2O[C@@](C)([C@@H]1OC)n1c3ccccc3c3c4c(c5c6ccccc6n2c5c31)C(=O)N[C@@H]4O [UCN-01],3.2,,1.7,5.9,5.9,1.3,5.2,6.8,6.2,7.4,1.2,12.7,7.6,0.4,
